ChEMBL document CHEMBL5705887, “Distinct concentration-dependent effects of the polo-like kinase 1-specific inhibitor GSK461364A, including differential effect on apoptosis” (Cancer Res, 2009)
The source made the active and inactive calls. The rule behind the calls is not given here.

Experiments:
[1] = test system: HN5; assay: Antiproliferative activity against human HN5 cells assessed as growth inhibition incubated for 72 hrs by celltiter-glo assay; type: functional
[2] = test system: Hep 3B2; assay: Antiproliferative activity against human Hep3B cells assessed as growth inhibition incubated for 72 hrs by celltiter-glo assay; type: functional
[3] = test system: OVCAR-3; assay: Antiproliferative activity against human OVCAR-3 cells assessed as viable cell signal at maximum growth inhibition incubated for 72 hrs by celltiter-glo assay relative to control; type: functional
[4] = test system: RKO; assay: Antiproliferative activity against human RKO cells assessed as viable cell signal at maximum growth inhibition incubated for 72 hrs by celltiter-glo assay relative to control; type: functional
[5] = test system: LoVo; assay: Antiproliferative activity against human LoVo cells assessed as growth inhibition incubated for 72 hrs by celltiter-glo assay; type: functional
[6] = test system: PANC-1; assay: Antiproliferative activity against human PANC-1 cells assessed as viable cell signal at maximum growth inhibition incubated for 72 hrs by celltiter-glo assay relative to control; type: functional
[7] = test system: MCF7; assay: Antiproliferative activity against human MCF7 cells assessed as viable cell signal at maximum growth inhibition incubated for 72 hrs by celltiter-glo assay relative to control; type: functional
[8] = test system: A-431; assay: Antiproliferative activity against human A-431 cells assessed as of viable cell signal at minimum maximum cell growth incubated for 72 hrs by celltiter-glo assay relative to control; type: functional
[9] = target: Fibroblast growth factor receptor 3 (Homo sapiens) (UniProt P22607); assay: Inhibition of N-terminal his6-tagged recombinant human FGFR3 (447 to 761 residues) expressed in baculovirus Sf21 insect cells at 10 uM relative to control
Sequence of Fibroblast growth factor receptor 3 (Homo sapiens) (P22607 23-806 limits assumed): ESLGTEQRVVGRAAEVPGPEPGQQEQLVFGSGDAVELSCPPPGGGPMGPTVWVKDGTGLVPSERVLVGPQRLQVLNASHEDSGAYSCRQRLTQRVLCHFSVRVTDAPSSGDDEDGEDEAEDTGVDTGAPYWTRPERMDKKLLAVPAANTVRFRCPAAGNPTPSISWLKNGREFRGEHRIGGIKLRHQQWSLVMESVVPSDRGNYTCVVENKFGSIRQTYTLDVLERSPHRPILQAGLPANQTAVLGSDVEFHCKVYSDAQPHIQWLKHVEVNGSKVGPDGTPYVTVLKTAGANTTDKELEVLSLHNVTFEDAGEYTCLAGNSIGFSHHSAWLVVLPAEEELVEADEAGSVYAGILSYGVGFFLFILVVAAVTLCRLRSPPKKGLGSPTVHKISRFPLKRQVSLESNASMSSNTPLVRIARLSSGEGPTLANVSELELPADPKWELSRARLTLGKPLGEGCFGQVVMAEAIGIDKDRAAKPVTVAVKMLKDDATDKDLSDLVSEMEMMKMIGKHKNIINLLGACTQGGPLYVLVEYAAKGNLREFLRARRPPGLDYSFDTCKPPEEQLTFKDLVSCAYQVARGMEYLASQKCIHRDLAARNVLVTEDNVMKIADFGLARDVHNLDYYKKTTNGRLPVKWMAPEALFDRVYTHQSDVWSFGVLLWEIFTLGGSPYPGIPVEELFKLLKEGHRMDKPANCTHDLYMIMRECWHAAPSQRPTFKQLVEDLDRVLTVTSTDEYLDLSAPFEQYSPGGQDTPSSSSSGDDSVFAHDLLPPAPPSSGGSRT

[10] = test system: HCC1937; assay: Antiproliferative activity against human HCC1937 cells assessed as of viable cell signal at minimum maximum cell growth incubated for 72 hrs by celltiter-glo assay relative to control; type: functional
[11] = test system: COLO 205; assay: Antitumor activity against human COLO 205 cells xenografted in Nude mouse assessed as increase in pHH3 level at 50 mg/kg, ip measured at 24 hrs by immunohistochemistry analysis; type: functional, organism-based
[12] = test system: A498; assay: Antiproliferative activity against human A498 cells assessed as viable cell signal at maximum growth inhibition incubated for 72 hrs by celltiter-glo assay relative to control; type: functional
[13] = test system: SW-620; assay: Antiproliferative activity against human SW620 cells assessed as of viable cell signal at minimum maximum cell growth incubated for 72 hrs by celltiter-glo assay relative to control; type: functional
[14] = test system: SJSA-1; assay: Antiproliferative activity against human SJSA-1 cells assessed as viable cell signal at maximum growth inhibition incubated for 72 hrs by celltiter-glo assay relative to control; type: functional
[15] = test system: Calu-3; assay: Antiproliferative activity against human Calu-3 cells assessed as viable cell signal at maximum growth inhibition incubated for 72 hrs by celltiter-glo assay relative to control; type: functional
[16] = test system: HeLa; assay: Antiproliferative activity against human HeLa cells assessed as growth inhibition incubated for 72 hrs by celltiter-glo assay; type: functional
[17] = test system: SK-BR-3; assay: Antiproliferative activity against human SK-BR-3 cells assessed as growth inhibition incubated for 72 hrs by celltiter-glo assay; type: functional
[18] = test system: SCLC; assay: Antiproliferative activity against human SCLC cells assessed as of viable cell signal at minimum maximum cell growth incubated for 72 hrs by celltiter-glo assay relative to control; type: functional
[19] = test system: ZR-75-1; assay: Antiproliferative activity against human ZR-75-1 cells assessed as viable cell signal at maximum growth inhibition incubated for 72 hrs by celltiter-glo assay relative to control; type: functional
[20] = test system: ZR-75-1; assay: Antiproliferative activity against human ZR-75-1 cells assessed as of viable cell signal at minimum maximum cell growth incubated for 72 hrs by celltiter-glo assay relative to control; type: functional
[21] = test system: SK-MEL-2; assay: Antiproliferative activity against human SK-MEL-2 cells assessed as of viable cell signal at minimum maximum cell growth incubated for 72 hrs by celltiter-glo assay relative to control; type: functional
[22] = test system: RPMI-8226; assay: Antiproliferative activity against human RPMI-8226 cells assessed as viable cell signal at maximum growth inhibition incubated for 72 hrs by celltiter-glo assay relative to control; type: functional
[23] = test system: MDA-MB-468; assay: Antiproliferative activity against human MDA-MB-468 cells assessed as growth inhibition incubated for 72 hrs by celltiter-glo assay; type: functional
[24] = test system: HCC1954; assay: Antiproliferative activity against human HCC1954 cells assessed as viable cell signal at maximum growth inhibition incubated for 72 hrs by celltiter-glo assay relative to control; type: functional
[25] = test system: Raji; assay: Antiproliferative activity against human Raji cells assessed as growth inhibition incubated for 72 hrs by celltiter-glo assay; type: functional
[26] = target: Serine/threonine-protein kinase WNK3 (Homo sapiens) (UniProt Q9BYP7); assay: Inhibition of N-terminal his6-tagged recombinant human WNK3 (1 to 434 residues) expressed in baculovirus Sf21 insect cells at 10 uM relative to control
Sequence of Serine/threonine-protein kinase WNK3 (Homo sapiens) (Q9BYP7 whole entry, the tested form may be a part): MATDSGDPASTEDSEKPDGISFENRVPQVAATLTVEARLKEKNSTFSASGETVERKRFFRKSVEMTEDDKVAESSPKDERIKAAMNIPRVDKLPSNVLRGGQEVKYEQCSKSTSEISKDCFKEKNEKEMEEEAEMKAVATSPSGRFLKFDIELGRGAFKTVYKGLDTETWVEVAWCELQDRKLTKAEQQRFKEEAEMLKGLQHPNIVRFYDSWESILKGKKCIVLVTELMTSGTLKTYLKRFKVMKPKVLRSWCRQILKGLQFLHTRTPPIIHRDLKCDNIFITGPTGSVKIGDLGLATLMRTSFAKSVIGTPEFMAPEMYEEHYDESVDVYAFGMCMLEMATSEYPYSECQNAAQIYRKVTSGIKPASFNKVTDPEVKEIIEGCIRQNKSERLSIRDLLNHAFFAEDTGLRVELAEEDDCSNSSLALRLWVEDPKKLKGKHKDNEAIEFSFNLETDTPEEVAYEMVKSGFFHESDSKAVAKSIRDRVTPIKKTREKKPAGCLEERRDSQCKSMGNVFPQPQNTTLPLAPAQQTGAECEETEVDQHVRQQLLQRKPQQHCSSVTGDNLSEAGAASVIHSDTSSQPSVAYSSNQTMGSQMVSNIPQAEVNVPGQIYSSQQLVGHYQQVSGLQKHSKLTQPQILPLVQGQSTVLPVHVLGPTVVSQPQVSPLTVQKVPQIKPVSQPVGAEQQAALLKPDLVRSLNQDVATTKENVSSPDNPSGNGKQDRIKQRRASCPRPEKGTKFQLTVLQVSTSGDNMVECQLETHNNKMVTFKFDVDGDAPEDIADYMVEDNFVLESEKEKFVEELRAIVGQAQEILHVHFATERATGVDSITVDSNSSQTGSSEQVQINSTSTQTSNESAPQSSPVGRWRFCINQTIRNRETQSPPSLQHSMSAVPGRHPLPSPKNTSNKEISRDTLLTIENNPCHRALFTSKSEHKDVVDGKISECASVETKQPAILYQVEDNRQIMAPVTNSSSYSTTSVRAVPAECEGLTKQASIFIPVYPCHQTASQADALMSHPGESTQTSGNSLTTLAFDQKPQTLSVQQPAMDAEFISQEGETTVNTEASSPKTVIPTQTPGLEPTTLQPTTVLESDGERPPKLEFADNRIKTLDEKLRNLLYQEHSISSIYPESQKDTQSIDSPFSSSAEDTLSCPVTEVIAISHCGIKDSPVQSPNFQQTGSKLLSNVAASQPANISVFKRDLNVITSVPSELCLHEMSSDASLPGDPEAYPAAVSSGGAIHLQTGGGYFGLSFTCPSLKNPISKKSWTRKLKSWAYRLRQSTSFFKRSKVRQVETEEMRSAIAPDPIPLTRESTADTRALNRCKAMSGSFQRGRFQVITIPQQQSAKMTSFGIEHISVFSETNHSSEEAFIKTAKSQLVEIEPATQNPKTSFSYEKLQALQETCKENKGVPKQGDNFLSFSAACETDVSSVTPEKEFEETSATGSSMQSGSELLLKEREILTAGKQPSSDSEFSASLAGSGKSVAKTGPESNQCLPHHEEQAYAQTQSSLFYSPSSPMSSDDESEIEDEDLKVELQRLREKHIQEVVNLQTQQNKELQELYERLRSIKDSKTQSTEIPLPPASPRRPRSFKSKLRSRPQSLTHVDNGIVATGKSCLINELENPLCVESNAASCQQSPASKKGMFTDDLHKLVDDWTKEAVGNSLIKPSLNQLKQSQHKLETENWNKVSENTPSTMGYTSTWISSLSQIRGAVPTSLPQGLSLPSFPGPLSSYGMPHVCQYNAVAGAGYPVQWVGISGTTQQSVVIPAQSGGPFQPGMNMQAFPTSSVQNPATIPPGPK

[27] = test system: NCI-H1155; assay: Antiproliferative activity against human NCI-H1155 cells assessed as growth inhibition incubated for 72 hrs by celltiter-glo assay; type: functional
[28] = target: Calcium/calmodulin-dependent protein kinase type II subunit delta (Homo sapiens) (UniProt Q13557); assay: Inhibition recombinant human CAMKII-delta at 10 uM relative to control
Sequence of Calcium/calmodulin-dependent protein kinase type II subunit delta (Homo sapiens) (Q13557 whole entry): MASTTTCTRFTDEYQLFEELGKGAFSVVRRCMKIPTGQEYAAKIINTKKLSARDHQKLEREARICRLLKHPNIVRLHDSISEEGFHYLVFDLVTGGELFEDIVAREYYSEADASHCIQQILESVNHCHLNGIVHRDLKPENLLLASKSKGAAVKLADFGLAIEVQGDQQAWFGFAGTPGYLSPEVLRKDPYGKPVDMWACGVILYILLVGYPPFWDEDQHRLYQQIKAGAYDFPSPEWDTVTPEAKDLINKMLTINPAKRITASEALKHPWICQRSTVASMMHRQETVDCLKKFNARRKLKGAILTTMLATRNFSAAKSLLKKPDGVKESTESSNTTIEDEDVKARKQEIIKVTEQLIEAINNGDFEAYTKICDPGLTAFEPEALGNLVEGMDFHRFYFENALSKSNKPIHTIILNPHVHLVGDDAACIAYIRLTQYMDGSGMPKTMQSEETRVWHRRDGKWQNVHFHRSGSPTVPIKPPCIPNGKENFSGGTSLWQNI

[29] = test system: COLO 205; assay: Antitumor activity against human COLO 205 cells xenografted in Nude mouse assessed as increase in pHH3 level at 50 to 100 mg/kg, ip administered one dose every 2 day repeated for 12 days by immunohistochemistry analysis; type: functional, organism-based; conditions: dose 50-100 mg/kg, time 12.0 day
[30] = test system: COLO 205; assay: Antiproliferative activity against human COLO 205 cells assessed as growth inhibition incubated for 72 hrs by celltiter-glo assay; type: functional
[31] = target: Calcium/calmodulin-dependent protein kinase type II subunit gamma (Homo sapiens) (UniProt Q13555); assay: Inhibition recombinant human CAMKII-gamma at 10 uM relative to control
Sequence of Calcium/calmodulin-dependent protein kinase type II subunit gamma (Homo sapiens) (Q13555 whole entry): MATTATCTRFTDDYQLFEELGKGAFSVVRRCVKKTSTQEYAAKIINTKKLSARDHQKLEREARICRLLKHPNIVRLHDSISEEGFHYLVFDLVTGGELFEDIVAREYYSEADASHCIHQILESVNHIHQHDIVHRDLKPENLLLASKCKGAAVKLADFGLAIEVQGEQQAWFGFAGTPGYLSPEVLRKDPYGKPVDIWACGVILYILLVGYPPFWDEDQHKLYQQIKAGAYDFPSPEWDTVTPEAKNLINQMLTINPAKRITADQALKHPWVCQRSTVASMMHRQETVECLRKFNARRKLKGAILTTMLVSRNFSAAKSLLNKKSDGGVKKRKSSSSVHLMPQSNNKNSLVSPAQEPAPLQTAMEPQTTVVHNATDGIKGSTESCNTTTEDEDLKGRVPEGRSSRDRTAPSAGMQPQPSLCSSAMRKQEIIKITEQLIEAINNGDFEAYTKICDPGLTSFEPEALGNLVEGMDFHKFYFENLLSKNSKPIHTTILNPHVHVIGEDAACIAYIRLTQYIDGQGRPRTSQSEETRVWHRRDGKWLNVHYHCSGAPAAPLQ

[32] = test system: ASPC1; assay: Antiproliferative activity against human ASPC1 cells assessed as of viable cell signal at minimum maximum cell growth incubated for 72 hrs by celltiter-glo assay relative to control; type: functional
[33] = test system: SK-MEL-28; assay: Antiproliferative activity against human SK-MEL-28 cells assessed as growth inhibition incubated for 72 hrs by celltiter-glo assay; type: functional
[34] = test system: SAOS-2; assay: Antiproliferative activity against human SAOS-2 cells assessed as of viable cell signal at minimum maximum cell growth incubated for 72 hrs by celltiter-glo assay relative to control; type: functional
[35] = test system: OVCAR-3; assay: Antiproliferative activity against human OVCAR-3 cells assessed as of viable cell signal at minimum maximum cell growth incubated for 72 hrs by celltiter-glo assay relative to control; type: functional
[36] = test system: A498; assay: Antiproliferative activity against human A498 cells assessed as of viable cell signal at minimum maximum cell growth incubated for 72 hrs by celltiter-glo assay relative to control; type: functional
[37] = test system: SW480; assay: Antiproliferative activity against human SW480 cells assessed as growth inhibition incubated for 72 hrs by celltiter-glo assay; type: functional
[38] = test system: NCI-H1155; assay: Antiproliferative activity against human NCI-H1155 cells assessed as viable cell signal at maximum growth inhibition incubated for 72 hrs by celltiter-glo assay relative to control; type: functional
[39] = target: Serine/threonine-protein kinase BRSK2 (Homo sapiens) (UniProt Q8IWQ3); assay: Inhibition of full length N-terminal his6-tagged recombinant human BRSK2 expressed in baculovirus Sf21 cells at 10 uM relative to control
Sequence of Serine/threonine-protein kinase BRSK2 (Homo sapiens) (Q8IWQ3 whole entry): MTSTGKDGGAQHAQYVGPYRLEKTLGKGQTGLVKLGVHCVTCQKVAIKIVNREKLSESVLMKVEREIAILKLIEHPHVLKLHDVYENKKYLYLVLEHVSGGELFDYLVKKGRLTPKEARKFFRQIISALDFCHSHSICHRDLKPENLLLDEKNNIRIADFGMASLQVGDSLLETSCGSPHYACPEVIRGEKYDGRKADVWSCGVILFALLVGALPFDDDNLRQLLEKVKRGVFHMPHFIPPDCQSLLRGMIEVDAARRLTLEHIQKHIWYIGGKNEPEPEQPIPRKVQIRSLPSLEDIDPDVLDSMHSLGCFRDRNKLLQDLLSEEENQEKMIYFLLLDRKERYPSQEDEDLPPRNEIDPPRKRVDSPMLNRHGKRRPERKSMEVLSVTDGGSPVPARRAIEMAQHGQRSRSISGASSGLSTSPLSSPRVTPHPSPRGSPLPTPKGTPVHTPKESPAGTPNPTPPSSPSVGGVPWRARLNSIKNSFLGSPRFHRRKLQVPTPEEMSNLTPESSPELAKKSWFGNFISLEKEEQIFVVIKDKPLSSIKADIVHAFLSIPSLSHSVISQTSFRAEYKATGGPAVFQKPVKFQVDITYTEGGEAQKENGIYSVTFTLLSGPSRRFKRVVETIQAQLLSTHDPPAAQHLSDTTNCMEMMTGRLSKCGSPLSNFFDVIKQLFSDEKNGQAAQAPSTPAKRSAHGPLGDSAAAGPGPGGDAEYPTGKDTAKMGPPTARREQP

[40] = Cytotoxicity against human HUVEC cells assessed as inhibition of cell growth incubated for 72 hrs by celltiter-glo assay; type: toxicity, cell-based

Compound: C[C@@H](Oc1cc(-n2cnc3ccc(CN4CCN(C)CC4)cc32)sc1C(N)=O)c1ccccc1C(F)(F)F [GSK-461364]
- GI50 [1]: 15.4 nM
- GI50 [2]: 35.8 nM
- Emax [3]: 496%
- Emax [4]: 456%
- GI50 [5]: 12.2 nM
- Emax [6]: 530%
- Emax [7]: 429%
- Emin [8]: 151.5%
- inhibition [9]: 60%
- Emin [10]: 100%
- Activity [11]: Active
- Emax [12]: 774%
- Emin [13]: 54.6%
- Emax [14]: 791%
- Emax [15]: 190%
- GI50 [16]: 21.8 nM
- GI50 [17]: 15.8 nM
- Emin [18]: 122%
- Emax [19]: 229%
- Emin [20]: 133.6%
- Emin [21]: 71.3%
- Emax [22]: 515%
- GI50 [23]: 6.35 nM
- Emax [24]: 280%
- GI50 [25]: 25.3 nM
- inhibition [26]: 68%
- GI50 [27]: 14.4 nM
- inhibition [28]: 88%
- Activity [29]: Active
- GI50 [30]: 14.2 nM
- inhibition [31]: 84%
- Emin [32]: 114%
- GI50 [33]: 381 nM
- Emin [34]: 83.5%
- Emin [35]: 164%
- Emin [36]: 243.2%
- GI50 [37]: 130 nM
- Emax [38]: 645%
- inhibition [39]: 79%
- IC50 at 72 h [40]: 7 nM
